# Several values for one entry are separate records, joined by “and”; a condition that tells them apart may be missing. Equal entries are not always repeated. Results filed as inconclusive are left out.
# Test system: BDF1 mice, B16 melanoma s.c., survival/tumor T/C
# Experiment: NCI In Vivo Anticancer Drug Screen. Data for tumor model B16 Melanoma (subcutaneous) in B6D2F1 (BDF1) mice
# Procedure: The antitumor activity of compounds was measured in mice bearing transplantable tumors. Survival or tumor size were measured and the results are expressed as the measurement made in the treated group (T) divided by the measurement made in the vehicle treated control group (C). The tumor model used in this assay is B16 Melanoma (subcutaneous) in B6D2F1 (BDF1) mice
# [1] = endpoint: median survival time, dose: 50.0 mg/kg/injection, schedule: Q01DX009 (ip), vehicle: water, higher = longer survival
# [2] = endpoint: median survival time, dose: 100.0 mg/kg/injection, schedule: Q01DX009 (ip), vehicle: water, higher = longer survival
smiles,measurement,setting,value
COC(=O)c1csc(-c2csc(CCN)n2)n1,T/C,"endpoint: median survival time, dose: 6.25 mg/kg/injection, schedule: Q01DX009 (ip), vehicle: water, higher = longer survival",89 % of control
same,T/C,"endpoint: median survival time, dose: 12.5 mg/kg/injection, schedule: Q01DX009 (ip), vehicle: water, higher = longer survival",98 % of control
same,T/C,"endpoint: median survival time, dose: 25.0 mg/kg/injection, schedule: Q01DX009 (ip), vehicle: water, higher = longer survival",91 % of control
same,T/C,[1],117 % of control
same,T/C,[2],102 % of control
CNc1ncnc2c1cnn2C,T/C,"endpoint: median survival time, dose: 10.0 mg/kg/injection, schedule: Q01DX009 (ip), vehicle: saline, higher = longer survival",92 % of control
same,T/C,"endpoint: median survival time, dose: 20.0 mg/kg/injection, schedule: Q01DX009 (ip), vehicle: saline, higher = longer survival",103 % of control
CC(C)[C@](O)(C(=O)OCC1=CC[N+]2([O-])CC[C@@H](O)[C@@H]12)[C@H](C)O (stereo partly drawn),T/C,[1],95 % of control
same,T/C,[2],106 % of control
same,T/C,"endpoint: median survival time, dose: 200.0 mg/kg/injection, schedule: Q01DX009 (ip), vehicle: water, higher = longer survival",103 % of control
O=C(O)CCCCC1CCSS1 (stereo not drawn),T/C,"endpoint: median survival time, dose: 7.81 mg/kg/injection, schedule: Q01DX009 (ip), vehicle: Klucel (hydroxypropylcellulose) (HPC), higher = longer survival",116 % of control and 117 % of control
same,T/C,"endpoint: median survival time, dose: 15.62 mg/kg/injection, schedule: Q01DX009 (ip), vehicle: Klucel (hydroxypropylcellulose) (HPC), higher = longer survival",112 % of control and 116 % of control
same,T/C,"endpoint: median survival time, dose: 125.0 mg/kg/injection, schedule: Q01DX009 (ip), vehicle: Klucel (hydroxypropylcellulose) (HPC), higher = longer survival",99 % of control and 100 % of control
O=NN(CCCl)C(=O)NC1[C@H](O)CCC[C@@H]1O (stereo partly drawn),T/C,"endpoint: median survival time, dose: 1.56 mg/kg/injection, schedule: Q01DX007 (ip), vehicle: water, higher = longer survival",95 % of control
same,T/C,"endpoint: median survival time, dose: 2.59 mg/kg/injection, schedule: Q01DX007 (ip), vehicle: water, higher = longer survival",108 % of control
same,T/C,"endpoint: median survival time, dose: 4.32 mg/kg/injection, schedule: Q01DX007 (ip), vehicle: water, higher = longer survival",114 % of control
O=c1[nH]cc(N(CCCl)CCCl)c(=O)[nH]1,T/C,"endpoint: median survival time, dose: 0.25 mg/kg/injection, schedule: Q01DX009 (ip), vehicle: saline with Tween-80, higher = longer survival",109 % of control
same,T/C,"endpoint: median survival time, dose: 0.5 mg/kg/injection, schedule: Q01DX009 (ip), vehicle: saline with Tween-80, higher = longer survival",124 % of control
N=[N+]=CC(=O)CCC(NC(=O)C(CCC(=O)C=[N+]=N)NC(=O)CCC(N)C(=O)O)C(=O)O (stereo not drawn),T/C,"endpoint: median survival time, dose: 0.1 mg/kg/injection, schedule: Q01DX009 (ip), vehicle: saline, higher = longer survival",95 % of control
same,T/C,"endpoint: median survival time, dose: 0.2 mg/kg/injection, schedule: Q01DX009 (ip), vehicle: saline, higher = longer survival",95 % of control
same,T/C,"endpoint: median survival time, dose: 0.4 mg/kg/injection, schedule: Q01DX009 (ip), vehicle: saline, higher = longer survival",94 % of control
same,T/C,"endpoint: median survival time, dose: 0.8 mg/kg/injection, schedule: Q01DX009 (ip), vehicle: saline, higher = longer survival",91 % of control
same,T/C,"endpoint: median survival time, dose: 1.6 mg/kg/injection, schedule: Q01DX009 (ip), vehicle: saline, higher = longer survival",98 % of control
same,T/C,"endpoint: median survival time, dose: 12.5 micrograms/kg/injection, schedule: Q01DX009 (ip), vehicle: saline, higher = longer survival",113 % of control
same,T/C,"endpoint: median survival time, dose: 25.0 micrograms/kg/injection, schedule: Q01DX009 (ip), vehicle: saline, higher = longer survival",117 % of control
same,T/C,"endpoint: median survival time, dose: 50.0 micrograms/kg/injection, schedule: Q01DX009 (ip), vehicle: saline, higher = longer survival",97 % of control
same,T/C,"endpoint: median survival time, dose: 100.0 micrograms/kg/injection, schedule: Q01DX009 (ip), vehicle: saline, higher = longer survival",102 % of control
same,T/C,"endpoint: median tumor weight (est.), dose: 0.2 mg/kg/injection, schedule: Q01DX009 (ip), vehicle: saline, higher = larger tumour",86 % of control
CCCCC[C@H](O)/C=C/[C@H]1[C@H](O)CC(=O)[C@@H]1C/C=C\CCCC(=O)O,T/C,"endpoint: median survival time, dose: 0.75 mg/kg/injection, schedule: Q04DX002 (ip), vehicle: Klucel (hydroxypropylcellulose) (HPC), higher = longer survival",98 % of control
same,T/C,"endpoint: median survival time, dose: 3.0 mg/kg/injection, schedule: Q04DX002 (ip), vehicle: Klucel (hydroxypropylcellulose) (HPC), higher = longer survival",118 % of control
same,T/C,"endpoint: median survival time, dose: 6.0 mg/kg/injection, schedule: Q04DX002 (ip), vehicle: Klucel (hydroxypropylcellulose) (HPC), higher = longer survival",122 % of control
same,T/C,"endpoint: median survival time, dose: 12.5 mg/kg/injection, schedule: Q04DX002 (ip), vehicle: saline with Tween-80, higher = longer survival",87 % of control
CC1(C)OCC(CO)(Nc2nc(N3CC3)nc(N3CC3)n2)CO1,T/C,"endpoint: median survival time, dose: 1.7 mg/kg/injection, schedule: Q01DX009 (ip), vehicle: saline, higher = longer survival",112 % of control
same,T/C,"endpoint: median survival time, dose: 2.5 mg/kg/injection, schedule: Q01DX009 (ip), vehicle: saline, higher = longer survival",104 % of control
same,T/C,"endpoint: median survival time, dose: 3.8 mg/kg/injection, schedule: Q01DX009 (ip), vehicle: saline, higher = longer survival",88 % of control
CN(N=O)C(N)=O,T/C,"endpoint: median survival time, dose: 3.12 mg/kg/injection, schedule: Q01DX009 (ip), vehicle: saline, higher = longer survival",97 % of control
same,T/C,"endpoint: median survival time, dose: 6.25 mg/kg/injection, schedule: Q01DX009 (ip), vehicle: saline, higher = longer survival",105 % of control
same,T/C,"endpoint: median survival time, dose: 12.5 mg/kg/injection, schedule: Q01DX009 (ip), vehicle: saline, higher = longer survival",109 % of control
